Patent US20260048041A1, “COMPOSITION FOR REMOVING HELICOBACTER PYLORI COMPRISING ZASTAPRAZAN OR PHARMACEUTICALLY ACCEPTABLE SALT THEREOF” (JEIL PHARMACEUTICAL CO., LTD., priority 2022, published 2026)
One block for each compound: values may come before it.

Key:
[1] = system: Helicobacter pylori SS1 (mouse colonizing strain); assay: Efficacy of JP-1366 to enhance antibacterial activity of clarithromycin, MIC and MBC by microdilution; format: cell-based; conditions: H. pylori SS1
Experimental: Helicobacter pylori SS1 (mouse colonizing strain): Known as Sydney strain, the strain is […] and VacA-positive, and has been confirmed to colonize mice C57BL/6 and is used in animal experiments.
An antibiotic susceptibility test was performed by the microdilution method according to CLSI guideline.
The antibiotic susceptibility test was performed using MH broth (7% horse serum, 0.4% IsoVitalex), and the susceptibility test medium for zastaprazan (JP-1366) was prepared at this time. […] Using the medium prepared in this way, clarithromycin was serially diluted 2-fold and in 16 steps, with a maximum concentration of 16 μg/mL. Wells containing only the medium without antibiotics were used as a negative control group, and wells inoculated only with the bacteria in the medium without antibiotics were used as a positive control group. H. pylori stored in a deep freezer (−70° C. or lower) was inoculated onto BHI agar (w/7% laked horse blood, 0.4% IsoVitalex) and cultured for three days at 37° C. under microaerophilic conditions (Oxoid CampyGene gas pk) and then subcultured onto a fresh medium. The cultured bacteria were harvested, suspended in PBS, and inoculated into each well at a concentration of 5×10^5 CFU/mL. Thereafter, the bacteria were cultured for three days at 37° C. under microaerophilic conditions of 5% 02, 10% CO2, and 85% N2 gas. The lowest concentration of the sample at which no bacterial growth was observed was determined as the MIC. […] The lowest concentration at which no bacterial growth was observed was determined as the minimum bactericidal concentration(MBC).

[2] = system: Helicobacter pylori 26695 (ATCC700329); assay: Anti-H. pylori in vitro efficacy test, MIC and MBC by microdilution (CLSI); format: cell-based; conditions: strain 26695; unit not given in table (method uses μg/mL)
Experimental: Helicobacter pylori 26695 (ATCC700329): A strain isolated from a patient known to be associated with the development of gastric cancer. The strain is cytotoxin associated gene (CagA)-positive and vacuolating cytotoxin (VacA)-positive and has a well-known genetic background, so it is mainly used for research purposes. An antibiotic susceptibility testing was performed using the microdilution method according to the CLSI guideline. […] The bacteria were inoculated into wells containing only medium without antibiotics to prepare the positive control group, and the wells containing only medium without antibiotics or inoculated bacteria were used as the negative control group. The concentration range of the test substances, zastaprazan (JP-1366) and fexuprazan, was determined through preliminary experiments. […] The lowest concentration at which no bacterial growth was observed was determined as the MIC. […] The lowest concentration at which no bacteria growth occurred was determined as the MBC. […] All tests were performed in duplicate, and the results were determined by conducting the experiments in triplicate.

[3] = system: Helicobacter pylori SS1 (mouse colonizing strain); assay: as above; format: cell-based
Experimental: (§1) Helicobacter pylori SS1 (mouse colonizing strain): A strain known as Sydney strain. The strain is CagA-positive and VacA-positive and has been confirmed to infect and colonize in C57BL/6 mice. The strain is used in animal testing. An antibiotic susceptibility testing was performed using the microdilution method according to the CLSI guideline. […] The bacteria were inoculated into wells containing only medium without antibiotics to prepare the positive control group, and the wells containing only medium without antibiotics or inoculated bacteria were used as the negative control group. The concentration range of the test substances, zastaprazan (JP-1366) and fexuprazan, was determined through preliminary experiments. […] The lowest concentration at which no bacterial growth was observed was determined as the MIC. […] The lowest concentration at which no bacteria growth occurred was determined as the MBC. […] All tests were performed in duplicate, and the results were determined by conducting the experiments in triplicate.

[4] = system: Helicobacter pylori (ATCC43504); assay: as above; format: cell-based; conditions: strain 43504, unit not given in table (method uses μg/mL); for MIC: 3 days, microaerobic
Experimental: as §1, with “(ATCC43504): Type” for “SS1 (mouse colonizing strain): A”, “for antibiotic susceptibility testing according” for “known as Sydney strain. The strain is CagA-positive and VacA-positive and has been confirmed”, “the Clinical & Laboratory Standards Institute (CLSI) guidelines.” for “infect and colonize in C57BL/6 mice. The strain is used in animal testing.”

[5] = Drug interaction (PK) trial of JP-1366, amoxicillin and clarithromycin in healthy adult volunteers; format: in vivo, human
Source text: Test drug and administration period A. Test drug 1: […] Jeil Pharmaceutical • Dose: […] Oral B. […] Selection and classification of clinical trial subjects […]

[6] = system: patients with erosive gastroesophageal reflux disease; assay: Phase 2 clinical trial, healing of mucosal breaks and symptoms; format: in vivo, human
Experimental: H. pylori testing was performed by 13C-urea breath test (13C-UBT), gastroscopy (Campylobacter-like organism test, CLO), or tissue biopsy to confirm H. pylori positivity/negativity. The testing was performed at the screening visit (Visit 1) or the randomization visit (Visit 2), and results from the same institution within 29 days prior to the randomization visit (Visit 2) could be substituted. This clinical trial was a randomized, double-blind, active-controlled, multicenter, phase 2 clinical trial targeting patients with erosive gastroesophageal reflux disease. After the subjects gave written consent to participate in the clinical trial, a screening test was conducted. […] At this time, the subjects were stratified by grade (A, B, C, D) according to the LA classification system classified by upper gastrointestinal endoscopy. Randomly assigned subjects took the clinical trial drug once a day according to the assigned administration group for four weeks. After four weeks of administration of the clinical trial drug, the subjects visited the clinical trial institution to undergo an upper gastrointestinal endoscopy to assess whether they were healed. Healed subjects underwent a Safety Follow-Up (F/U) two weeks later, and unhealed subjects were administered the clinical trial drug for additional four weeks (a total of 8 weeks of administration) and visited the clinical trial institution to undergo an upper gastrointestinal endoscopy. […] 3.

[7] = Solubility seen during MIC analysis; format: physicochemical; conditions: in MIC medium; suspension formed, MIC analysis difficult
Source text: Referring to Table 4 below, since the solubility of zastaprazan (JP-1366) was low, the MIC analysis was difficult (poor solubility, formation of suspension, interference in visual/absorbance analysis), so the inhibitory effect on the H. pylori strains was confirmed through the MBC index.

[8] = MH medium + JP1366 at ½ MIC concentration, unit not given
[9] = MH medium, unit not given in table (method uses μg/mL)
[10] = strain SS1, unit not given in table (method uses μg/mL)
[11] = JP-1366, three-drug regimen vs JP-1366 alone

Structure (SMILES): CC[C@H]1OC(=O)[C@H](C)[C@@H](O[C@H]2C[C@@](C)(OC)[C@@H](O)[C@H](C)O2)[C@H](C)[C@@H](O[C@@H]2O[C@H](C)C[C@H](N(C)C)[C@H]2O)[C@](C)(OC)C[C@@H](C)C(=O)[C@H](C)[C@@H](O)[C@]1(C)O [Clarithromycin]
- MBC [1, 8]: 0.032 to 0.063
- MIC [1, 8]: 0.032 to 0.063
- MBC [1, 9]: 0.063 to 0.125
- MIC [1, 9]: 0.032 to 0.063
- lowering of MBC in medium containing JP1366 ([1]; medium with zastaprazan (JP1366) at ½ MIC concentration vs MH medium): about ½
- MBC [2]: 0.125
- MIC [2]: 0.063~0.125
- MBC [3, 10]: 0.125
- MIC [3, 10]: 0.032
- MIC [4]: 0.032
- MBC [4]: 0.063

Structure (SMILES): Cc1cccc(C)c1CNc1cc(C(=O)N2CCC2)cn2c(C)c(C)nc12.O=C(O)CC(O)(CC(=O)O)C(=O)O [JP-1366, azetidin-1-yl{8-[(2,6-dimethylbenzyl)amino]-2,3-dimethylimidazo[1,2-a]pyridin-6-yl}methanone citrate salt]
- MBC [2]: 16~32
- MBC ([3]; Helicobacter pylori, stated in Example 5 method, H. pylori SS1, read-out: maximum MBC value): 32 µg/mL
- MBC [3, 10]: 16~32
- MBC [4]: 8~32
- AUCT higher when T3 was administered compared to T1 [5, 11]: approximately 2.4 times
- AUCτ, Geometric LS Mean Ratio (T3/T1), Point Estimate [5, 11]: 2.4422
- Cmax, ss higher when T3 was administered compared to T1 [5, 11]: approximately 1.8 times
- Cmax, ss, Geometric LS Mean Ratio (T3/T1), Point Estimate [5, 11]: 1.7766
- Cmax ([5]; human, in vivo, JP-1366 after T1: JP-1366 20 mg 1 capsule alone, twice daily, 5 days, oral, N = 24, read-out: Cmax, ss, Geometric LS Mean): 156 ng/mL
- increase of area under the concentration-time curve (AUCT) compared to single administration ([5]; zastaprazan combined with amoxicillin and clarithromycin): more than twofold
- healing effect compared with Nexium 40 mg ([6]; H. pylori-negative group, 20 mg): the same effect as Nexium 40 mg
- symptoms (heartburn, acid reflux, heartburn/acid reflux) within 24 hours and for seven days after administration ([6]; JP-1366 5 mg two capsules (10 mg) once a day): all symptoms tended to be ameliorated
- symptoms (heartburn, acid reflux, heartburn/acid reflux) within 24 hours and for seven days after administration ([6]; JP-1366 20 mg one capsule once a day): all symptoms tended to be ameliorated
- solubility [7]: low

Structure (SMILES): CNCc1cn(S(=O)(=O)c2cccc(F)c2)c(-c2ccc(F)cc2F)c1OC [Fexuprazan]
- MBC [2]: 64~128
- MIC [2]: 64
- MBC [3, 10]: 64~128
- MIC [3, 10]: 64
- MIC [4]: 64
- MBC [4]: 64~128

Structure (SMILES): COc1ccc2[nH]c([S+]([O-])Cc3ncc(C)c(OC)c3C)nc2c1 (stereo not drawn) [Omeprazole]
- MBC [2]: 64~128
- MIC [2]: 32~64
- MBC [3, 10]: 64~128
- MIC [3, 10]: 32~64
- MIC [4]: 32
- MBC [4]: 64

- MIC [2]: 0.016~0.032
- MIC [4]: 0.016~0.032
Structure (SMILES): CC1(C)S[C@@H]2[C@H](NC(=O)[C@H](N)c3ccc(O)cc3)C(=O)N2[C@H]1C(=O)O [Amoxicillin]
- MBC [2]: 0.032
- MBC [3, 10]: 0.25
- MBC [4]: 0.032
